Measured values reported in patent US9238656B2, “Imidazo[4,5-b]pyridine derivatives as ALK and JAK modulators for the treatment of proliferative disorders” (priority 2012, dated 2016).
Where a name gives a salt, the structure may show the parent alone. Read-outs that look alike come from different tables or passages of the source.

Key:
[1] = biological target: baculovirus-expressed JAK2 kinase (Homo sapiens, UniProt O60674); assay: biochemical
Procedure, shortened: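 IC50 derived by variable-slope sigmoidal fit of percent inhibition against log compound concentration. Baculovirus-expressed JAK2 (15 ng/mL) phosphorylated a plate-bound biotinylated 15-mer peptide for 20 min at room temperature; detection by time-resolved fluorescence.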

[2] = biological target: baculovirus-expressed ALK (Homo sapiens, UniProt Q9UM73); assay: ALK kinase inhibition, TRF/ELISA; type: biochemical; conditions: read-out: ALK Potency
Procedure, shortened: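 Eu-PT66 anti-phosphotyrosine TRF read-out measured phosphorylation of plate-bound GST-PLC-γ (coated at 10 μg/mL). The phosphorylation was driven by 30 ng/mL ALK for 15 minutes at 37° C.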

[3] = 0.2 μM ATP, read-out: JAK2 Potency

baculovirus-expressed ALK, sequence (Q9UM73 19-1620): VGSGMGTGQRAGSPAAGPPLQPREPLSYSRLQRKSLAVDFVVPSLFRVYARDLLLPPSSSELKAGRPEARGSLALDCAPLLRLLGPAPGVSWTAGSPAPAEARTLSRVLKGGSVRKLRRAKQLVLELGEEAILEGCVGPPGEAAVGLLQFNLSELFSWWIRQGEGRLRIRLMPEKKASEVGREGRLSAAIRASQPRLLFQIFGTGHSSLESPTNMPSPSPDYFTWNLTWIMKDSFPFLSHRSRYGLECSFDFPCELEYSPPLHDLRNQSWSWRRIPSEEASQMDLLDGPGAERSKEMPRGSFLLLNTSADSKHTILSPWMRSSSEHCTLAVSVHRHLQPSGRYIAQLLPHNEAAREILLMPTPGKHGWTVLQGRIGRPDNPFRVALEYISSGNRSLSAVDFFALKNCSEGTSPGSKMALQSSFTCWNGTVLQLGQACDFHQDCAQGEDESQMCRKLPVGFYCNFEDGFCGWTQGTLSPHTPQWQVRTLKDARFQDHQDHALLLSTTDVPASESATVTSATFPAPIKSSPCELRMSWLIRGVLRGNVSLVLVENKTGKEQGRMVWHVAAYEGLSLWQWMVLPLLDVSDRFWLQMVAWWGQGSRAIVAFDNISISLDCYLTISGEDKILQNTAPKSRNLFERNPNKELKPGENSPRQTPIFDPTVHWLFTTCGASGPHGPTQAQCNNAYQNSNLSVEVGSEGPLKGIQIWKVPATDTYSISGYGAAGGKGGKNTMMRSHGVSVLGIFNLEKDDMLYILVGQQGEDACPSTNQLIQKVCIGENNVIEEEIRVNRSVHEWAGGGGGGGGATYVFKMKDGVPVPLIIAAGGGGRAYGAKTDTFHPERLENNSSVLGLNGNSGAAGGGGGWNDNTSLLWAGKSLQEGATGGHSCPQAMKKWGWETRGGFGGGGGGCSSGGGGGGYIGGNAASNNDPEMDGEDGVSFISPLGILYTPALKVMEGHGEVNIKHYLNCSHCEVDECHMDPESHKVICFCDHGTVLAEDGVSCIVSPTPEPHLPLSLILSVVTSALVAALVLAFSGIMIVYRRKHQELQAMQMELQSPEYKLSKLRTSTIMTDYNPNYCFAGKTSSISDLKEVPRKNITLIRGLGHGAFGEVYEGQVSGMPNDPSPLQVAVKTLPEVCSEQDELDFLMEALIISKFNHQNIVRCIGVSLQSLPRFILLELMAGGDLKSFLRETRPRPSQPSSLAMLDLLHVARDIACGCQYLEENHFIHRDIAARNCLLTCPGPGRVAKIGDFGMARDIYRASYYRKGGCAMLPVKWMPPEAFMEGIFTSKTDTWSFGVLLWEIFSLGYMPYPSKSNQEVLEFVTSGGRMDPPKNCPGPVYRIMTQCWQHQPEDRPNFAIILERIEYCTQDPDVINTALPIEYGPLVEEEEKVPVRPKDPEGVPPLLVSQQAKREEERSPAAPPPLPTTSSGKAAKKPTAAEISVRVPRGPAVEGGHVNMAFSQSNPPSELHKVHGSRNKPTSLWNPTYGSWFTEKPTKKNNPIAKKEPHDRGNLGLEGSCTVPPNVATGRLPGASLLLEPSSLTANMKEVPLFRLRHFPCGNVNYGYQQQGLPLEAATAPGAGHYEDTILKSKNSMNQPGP
baculovirus-expressed JAK2 kinase, sequence (O60674 whole entry): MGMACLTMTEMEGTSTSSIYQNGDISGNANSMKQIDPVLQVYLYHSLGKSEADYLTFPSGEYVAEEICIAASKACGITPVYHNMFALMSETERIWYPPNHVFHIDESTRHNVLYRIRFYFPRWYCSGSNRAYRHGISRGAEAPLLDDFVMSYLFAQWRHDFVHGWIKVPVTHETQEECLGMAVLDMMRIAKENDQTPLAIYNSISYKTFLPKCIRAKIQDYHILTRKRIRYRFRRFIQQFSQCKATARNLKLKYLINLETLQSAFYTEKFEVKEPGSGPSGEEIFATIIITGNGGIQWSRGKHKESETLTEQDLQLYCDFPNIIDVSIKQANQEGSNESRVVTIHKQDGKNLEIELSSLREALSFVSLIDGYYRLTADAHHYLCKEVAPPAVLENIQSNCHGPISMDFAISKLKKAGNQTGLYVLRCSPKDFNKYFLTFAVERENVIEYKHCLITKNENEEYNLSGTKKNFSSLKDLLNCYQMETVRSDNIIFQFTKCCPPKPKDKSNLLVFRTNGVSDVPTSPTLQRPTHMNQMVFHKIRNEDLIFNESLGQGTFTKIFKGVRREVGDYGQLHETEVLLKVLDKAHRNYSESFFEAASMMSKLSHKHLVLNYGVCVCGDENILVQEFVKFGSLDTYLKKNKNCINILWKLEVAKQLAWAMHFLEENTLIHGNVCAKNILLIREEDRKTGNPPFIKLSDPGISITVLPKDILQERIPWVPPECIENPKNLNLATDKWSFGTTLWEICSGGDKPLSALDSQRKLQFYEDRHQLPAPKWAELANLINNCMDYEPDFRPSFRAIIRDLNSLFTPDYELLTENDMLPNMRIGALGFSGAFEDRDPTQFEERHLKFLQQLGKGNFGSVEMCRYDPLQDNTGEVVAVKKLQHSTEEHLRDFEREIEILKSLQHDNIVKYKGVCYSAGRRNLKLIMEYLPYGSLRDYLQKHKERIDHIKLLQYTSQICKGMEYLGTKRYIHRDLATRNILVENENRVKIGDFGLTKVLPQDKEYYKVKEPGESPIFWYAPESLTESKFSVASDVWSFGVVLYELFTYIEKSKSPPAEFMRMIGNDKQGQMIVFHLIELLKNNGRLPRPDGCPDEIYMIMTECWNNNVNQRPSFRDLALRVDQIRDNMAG

IC50 [1, 3] [nM] | IC50 [2] [nM] | Compound | IC50 ([1]; JAK2 Potency) [nM]
1000 to 10000 | < 100 | COc1cc(CN2CCN(C)CC2)ccc1-c1nc2c(N[C@@H]3CCCC[C@H]3NS(C)(=O)=O)c(Cl)cnc2[nH]1 [Compound LXXI, N-((1R,2R)-2-{6-Chloro-2-[2-methoxy-4-(4-methyl-piperazin-1-ylmethyl)-phenyl]-3H-imidazo[4,5-b]pyridine-7-ylamino}-cyclohexyl)-methanesulfonamide] | –
< 100 | < 100 | Cc1cc(N2CCOCC2)ccc1-c1nc2c(N[C@H]3[C@@H](C(N)=O)[C@@H]4C=C[C@H]3C4)c(Br)cnc2[nH]1 [Compound CXXX, (1S,2S,3R,4R)-3-[6-Bromo-2-(2-methyl-4-morpholin-4-yl-phenyl)-3H-imidazo[4,5-b]pyridin-7-ylamino]-bicyclo[2.2.1]hept-5-ene-2-carboxylic acid amide] | –
1000 to 10000 | 1000 to 10000 | CC(C)(C)OC(=O)N1CCC(c2nc3c(N[C@H]4[C@@H](C(N)=O)[C@@H]5C=C[C@H]4C5)c(Cl)cnc3[nH]2)CC1 [Compound CCXV, tert-butyl 4-(7-((1R,2R,3S,4S)-3-carbamoylbicyclo[2.2.1]hept-5-en-2-ylamino)-6-chloro-3H-imidazo[4,5-b]pyridin-2-yl)piperidine-1-carboxylate] | –
< 100 | < 100 | CN(C)c1nc(Cl)c(-c2nc3c(N[C@H]4[C@@H](C(N)=O)[C@@H]5C=C[C@H]4C5)c(Cl)cnc3[nH]2)s1 [Compound CLIV, (1S,2S,3R,4R)-3-[6-Chloro-2-(4-chloro-2-dimethylamino-thiazol-5-yl)-3H-imidazo[4,5-b]pyridin-7-ylamino]-bicyclo[2.2.1]hept-5-ene-2-carboxylic acid amide] | –
< 100 | < 100 | NC(=O)[C@@H]1[C@H](Nc2c(Cl)cnc3[nH]c(-c4sc(N5CCOCC5)nc4Cl)nc23)[C@H]2C=C[C@@H]1C2 [Compound CLX, (1S,2S,3R,4R)-3-[6-Chloro-2-(4-chloro-2-morpholin-4-yl-thiazol-5-yl)-3H-imidazo[4,5-b]pyridin-7-ylamino]-bicyclo[2.2.1]hept-5-ene-2-carboxylic acid amide] | –
< 100 | 100 to 1000 | NC(=O)[C@@H]1[C@H](Nc2c(Cl)cnc3[nH]c(-c4cccc(F)c4)nc23)[C@H]2C=C[C@@H]1C2 [Compound CXXVIII] | –
100 to 1000 | 100 to 1000 | CC(C)NC(=O)[C@@H]1[C@H](Nc2c(Cl)cnc3[nH]c(-c4cnn(C)c4)nc23)[C@H]2C=C[C@@H]1C2 [Compound CLXXXVII] | –
< 100 | 100 to 1000 | NC(=O)[C@@H]1[C@H](Nc2c(Cl)cnc3[nH]c(-c4ccc(Cl)cc4)nc23)[C@H]2C=C[C@@H]1C2 [Compound CXLI, (1S,2S,3R,4R)-3-[6-Chloro-2-(4-chloro-phenyl)-3H-imidazo[4,5-b]pyridin-7-ylamino]-bicyclo[2.2.1]hept-5-ene-2-carboxylic acid amide] | –
1000 to 10000 | 1000 to 10000 | COc1ccc(-c2nc3c(N[C@H]4[C@@H](C(N)=O)[C@@H]5C=C[C@H]4C5)c(Cl)cnc3[nH]2)c(C2CCN(C[C@H](C)O)CC2)c1 [Compound XXXII, (1S,2S,3R,4R)-3-(6-Chloro-2-{2-[1-((S)-2-hydroxypropyl)-piperidin-4-yl]-4-methoxy-phenyl}-3H-imidazo[4,5-b]pyridin-7-ylamino)-bicyclo[2.2.1]hept-5-ene-2-carboxylic acid amide] | –
< 100 | > 10000 | Cn1cc(-c2nc3c(N[C@@]45CCC(C)(C(O)C4)C5(C)C)c(Cl)cnc3[nH]2)cn1 (stereo partly drawn) [Compound CCII, (4S)-4-(6-chloro-2-(1-methyl-1H-pyrazol-4-yl)-3H-imidazo[4,5-b]pyridin-7-ylamino)-1,7,7-trimethylbicyclo[2.2.1]heptan-2-ol] | –
< 100 | < 100 | CN(C)CCOc1ccc(-c2nc3c(N[C@H]4[C@@H](C(N)=O)[C@@H]5C=C[C@H]4C5)c(Cl)cnc3[nH]2)cc1 [Compound CCXLIX, (1S,2S,3R,4R)-3-(6-chloro-2-(4-(2-(dimethylamino)ethoxy)phenyl)-3H-imidazo[4,5-b]pyridin-7-ylamino)bicyclo[2.2.1]hept-5-ene-2-carboxamide] | –
< 100 | < 100 | CN(C)CCOc1cccc(-c2nc3c(N[C@H]4[C@@H](C(N)=O)[C@@H]5C=C[C@H]4C5)c(Cl)cnc3[nH]2)c1 [Compound CCXLVII, (1S,2S,3R,4R)-3-(6-chloro-2-(3-(2-(dimethylamino)ethoxy)phenyl)-3H-imidazo[4,5-b]234yridine-7-ylamino)pyridin[2.2.1]hept-5-ene-2-carboxamide] | –
100 to 1000 | < 100 | O=C(NC1CC1)[C@@H]1[C@H](Nc2c(Cl)cnc3[nH]c(-c4sc(N5CCOCC5)nc4Cl)nc23)[C@H]2C=C[C@@H]1C2 [Compound CLXXIV, (1S,2S,3R,4R)-3-[6-Chloro-2-(4-chloro-2-morpholin-4-yl-thiazol-5-yl)-3H-imidazo[4,5-b]pyridin-7-ylamino]-bicyclo[2.2.1]hept-5-ene-2-carboxylic acid cyclopropylamide] | –
< 100 | < 100 | CN(C)C(=O)[C@@H]1[C@H](Nc2c(Cl)cnc3[nH]c(-c4sc(N5CC[C@@H](O)C5)nc4Cl)nc23)[C@H]2C=C[C@@H]1C2 [Compound CLXVIII, (1S,2S,3R,4R)-3-{6-Chloro-2-[4-chloro-2-((R)-3-hydroxy-pyrrolidin-1-yl)-thiazol-5-yl]-3H-imidazo[4,5-b]pyridin-7-ylamino}-bicyclo[2.2.1]hept-5-ene-2-carboxylic acid dimethylamide] | –
100 to 1000 | 100 to 1000 | COc1ccncc1-c1nc2c(N[C@H]3[C@@H](C(N)=O)[C@@H]4C=C[C@H]3C4)c(Cl)cnc2[nH]1 [Compound XXXV, (1S,2S,3R,4R)-3-[6-Chloro-2-(4-methoxy-pyridin-3-yl)-3H-imidazo[4,5-b]pyridine-7-ylamino]-bicyclo[2.2.1]hept-5-ene-2-carboxylic acid amide] | –
100 to 1000 | < 100 | COc1cc(CN2CCNCC2)ccc1-c1nc2c(N[C@H]3[C@@H](C(N)=O)[C@@H]4C=C[C@H]3C4)c(Cl)cnc2[nH]1 [Compound XLII, (1S,2S,3R,4R)-3-[6-Chloro-2-(2-methoxy-4-piperazin-1-ylmethyl-phenyl)-3H-imidazo[4,5-b]pyridine-7-ylamino]-bicyclo[2.2.1]hept-5-ene-2-carboxylic acid amide] | –
< 100 | 100 to 1000 | NC(=O)[C@@H]1[C@H](Nc2c(Br)cnc3[nH]c(-c4cccc(F)c4)nc23)[C@H]2C=C[C@@H]1C2 [Compound CXXXII, (1S,2S,3R,4R)-3-[6-Bromo-2-(3-fluoro-phenyl)-3H-imidazo[4,5-b]pyridin-7-ylamino]-bicyclo[2.2.1]hept-5-ene-2-carboxylic acid amide] | –
< 100 | 100 to 1000 | NC(=O)[C@@H]1[C@H](Nc2c(Br)cnc3[nH]c(-c4ccc(N5CCOCC5)c(Cl)c4)nc23)[C@H]2C=C[C@@H]1C2 [Compound CXXXV, (1S,2S,3R,4R)-3-[6-Bromo-2-(3-chloro-4-morpholin-4-yl-phenyl)-3H-imidazo[4,5-b]pyridin-7-ylamino]-bicyclo[2.2.1]hept-5-ene-2-carboxylic acid amide] | –
< 100 | 100 to 1000 | NC(=O)COc1ccc(-c2nc3c(N[C@H]4[C@@H](C(N)=O)[C@@H]5C=C[C@H]4C5)c(Cl)cnc3[nH]2)cc1 [Compound CCXL, (1S,2S,3R,4R)-3-(2-(4-(2-amino-2-oxoethoxy)phenyl)-6-chloro-3H-imidazo[4,5-b]pyridin-7-ylamino)bicyclo[2.2.1]hept-5-ene-2-carboxamide] | –
< 100 | 1000 to 10000 | Cn1cc(-c2nc3c(NC45CCC(C)(C(=O)C4)C5(C)C)c(Cl)cnc3[nH]2)cn1 (centres unmarked) [Compound CXCIX, 4-(6-chloro-2-(1-methyl-1H-pyrazol-4-yl)-3H-imidazo[4,5-b]pyridin-7-ylamino)-1,7,7-trimethylbicyclo[2.2.1]heptan-2-one] | –
< 100 | < 100 | NC(=O)[C@@H]1[C@H](Nc2c(Cl)cnc3[nH]c(-c4sc(N5CCCC5)nc4Cl)nc23)[C@H]2C=C[C@@H]1C2 [Compound CLXVI, (1S,2S,3R,4R)-3-[6-Chloro-2-(4-chloro-2-pyrrolidin-1-yl-thiazol-5-yl)-3H-imidazo[4,5-b]pyridin-7-ylamino]-bicyclo[2.2.1]hept-5-ene-2-carboxylic acid amide] | –
100 to 1000 | > 10000 | CN(C)c1cccc(-c2nc3c(N[C@@H]4[C@H](C(N)=O)[C@H]5C=C[C@@H]4C5)c(Cl)cnc3[nH]2)c1 [Compound XXIV, (1R,2R,3S,4S)-3-[6-Chloro-2-(3-dimethylamino-phenyl)-3H-imidazo[4,5-b]pyridine-7-ylamino]-bicyclo[2.2.1]hept-5-ene-2-carboxylic acid amide] | –
100 to 1000 | > 10000 | Cn1cc(-c2nc3c(N[C@H]4[C@@H](C(N)=O)[C@@H]5CC[C@H]4O5)c(Cl)cnc3[nH]2)cn1 [Compound CCV, (1S,2R,3S,4R)-3-(6-chloro-2-(1-methyl-1H-pyrazol-4-yl)-3H-imidazo[4,5-b]pyridin-7-ylamino)-7-oxabicyclo[2.2.1]heptane-2-carboxamide] | –
< 100 | 100 to 1000 | NC(=O)[C@@H]1[C@H](Nc2c(Br)cnc3[nH]c(-c4ccc(F)cc4)nc23)[C@H]2C=C[C@@H]1C2 [Compound CXXXIII, (1S,2S,3R,4R)-3-[6-Bromo-2-(4-fluoro-phenyl)-3H-imidazo[4,5-b]pyridin-7-ylamino]-bicyclo[2.2.1]hept-5-ene-2-carboxylic acid amide] | –

Compound | IC50 [1, 3] [nM] | IC50 [2] [nM] | IC50 ([1]; JAK2 Potency) [nM]
COc1cc(N2CCOCC2)ccc1-c1nc2c(N3C[C@@H]4C[C@H]3CN4)c(Cl)cnc2[nH]1 [Compound XXXVII, 6-Chloro-7-(1S,4S)-2,5-diaza-bicyclo[2.2.1]hept-2-yl-2-(2-methoxy-4-morpholin-4-yl-phenyl)-3H-imidazo[4,5-b]pyridine hydrochloride] | – | > 10000 | 1000 to 10000
